Laboratory results as given in the supplement of paper PMC10307832.

Legend:
Assay in all cases: relative viability (nuclei count vs DMSO), 5 days (fraction); higher = more cells survive
[1] = compound: COc1cc2/c(=N/c3ccc(Br)cc3F)nc[nH]c2cc1OCC1CCN(C)CC1 [Vandetanib] + CC(=O)Nc1cccc(-n2c(=O)n(C3CC3)c(=O)c3c(Nc4ccc(I)cc4F)n(C)c(=O)c(C)c32)c1 [Trametinib] (partner 0.02 µM)
How it was run: (§1)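 Cells from lung cancer lines were seeded into 1536-well plates and, one day later, dosed by pin tool. Treatments were either a single drug or a fixed dose of an anchor drug with five library-drug doses (not always all listed) in √10 steps. After 5 days, nuclei were stained in a one-step fixation (final 0.05% Triton X-100, 1% formaldehyde, 1 ug/ml Hoechst) and counted on 4× images, and relative viability is the treated-to-vehicle nuclei ratio, as the median of duplicate plates.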

[2] = compound: C#Cc1cccc(Nc2ncnc3cc(OC)c(OCCCCCCC(=O)NO)cc23)c1 [CUDC-101] + O=C(CCCCCCC(=O)Nc1ccccc1)NO [Vorinostat] (partner 1 µM)
How it was run: as §1

[3] = compound: C1=CC=C2C(=C1)N=C(S2)C(C#N)C3=NC(=NC=C3)NCCC4=CN=CC=C4 + C[C@]1(O)C[C@@H](c2nc(-c3ccc4ccc(-c5ccccc5)nc4c3)c3c(N)nccn32)C1 [Linsitinib] (partner 1 µM)
How it was run: as §1

[4] = compound: C#Cc1cccc(Nc2ncnc3cc(OC)c(OCCCCCCC(=O)NO)cc23)c1 [CUDC-101] + Nc1ncn([C@H]2C[C@H](O)[C@@H](CO)O2)c(=O)n1 [Decitabine] (partner 2 µM)
How it was run: as §1

UMC-11 was tested. Which relative viability ([1]; first compound 0.02 µM) did it give?
Its relative viability is 0.82.

What about the relative viability ([1]; first compound 0.06325 µM) of the same cell line?
The relative viability was 0.674.

What about the relative viability ([1]; first compound 0.2 µM) of the same cell line?
Its relative viability is 0.627.

What about the relative viability ([1]; first compound 0.6325 µM) of the same cell line?
The relative viability was 0.632.

And the relative viability ([1]; first compound 2 µM)?
The relative viability was 0.583.

What about the relative viability ([2]; first compound 0.01 µM) of the same cell line?
The relative viability was 0.359.

What about the relative viability ([2]; first compound 0.03162 µM) of the same cell line?
The relative viability was 0.317.

What about the relative viability ([2]; first compound 0.1 µM) of the same cell line?
The relative viability was 0.32.

And the relative viability ([2]; first compound 0.3162 µM)?
Its relative viability is 0.129.

What about the relative viability ([2]; first compound 1 µM) of the same cell line?
Its relative viability is 0.0877.

And the relative viability ([3]; first compound 0.005 µM)?
The relative viability was 0.809.

What about the relative viability ([3]; first compound 0.01581 µM) of the same cell line?
The relative viability was 0.968.

And the relative viability ([3]; first compound 0.05 µM)?
Its relative viability is 0.967.

And the relative viability ([3]; first compound 0.1581 µM)?
The relative viability was 1.1.

And the relative viability ([3]; first compound 0.5 µM)?
Its relative viability is 0.917.

What about the relative viability ([4]; first compound 0.01 µM) of the same cell line?
Its relative viability is 0.761.

What about the relative viability ([4]; first compound 0.03162 µM) of the same cell line?
Its relative viability is 0.477.

And the relative viability ([4]; first compound 0.1 µM)?
Its relative viability is 0.601.

What about the relative viability ([4]; first compound 0.3162 µM) of the same cell line?
The relative viability was 0.462.

What about the relative viability ([4]; first compound 1 µM) of the same cell line?
Its relative viability is 0.221.
